Source: ChEMBL document CHEMBL6109134, “Discovery of AMG 193, an MTA-Cooperative PRMT5 Inhibitor for the Treatment of MTAP-Deleted Cancers” (J Med Chem, 2025)

Tests used:
HCT-116 [1] = assay: Antiproliferative activity against MTAP-deleted human HCT-116 cells assessed as effect on cell viability incubated for 6 days by Celltiter-Glo luminescent cell viability assay; assay type: functional, cell-based; conditions: HCT-116, 144 h
HCT-116 [2] = assay: Antiproliferative activity against human HCT-116 cells harboring wildtype MTAP assessed as effect on cell viability incubated for 6 days by Celltiter-Glo luminescent cell viability assay; assay type: functional, cell-based; conditions: HCT-116, 144 h
human MDR1 (P-gp) = assay: Efflux ratio of permeability across basolateral to apical side over apical to basolateral side in MDCK cells transfected with human MDR1 in absence of elacridar; conditions: dog
[3] = Metabolic stability in human liver microsomes assessed as intrinsic clearance at 0.5 uM incubated for 40 mins in presence of NADPH; assay type: ADME, Microsome; conditions: read-out: CLH
[4] = Metabolic stability in mouse liver microsomes assessed as intrinsic clearance at 0.5 uM incubated for 40 mins in presence of NADPH; assay type: ADME, Microsome; conditions: read-out: CLH
[5] = target: T1, Nuclear receptor subfamily 1 group I member 2 (Homo sapiens, UniProt O75469); assay: Activation of human PXR in human HepG2 cells co-transfected with CYP3A4-luciferase at 10 uM incubated for 1 day relative to control; conditions: hepg2, 24 h
T1 sequence (O75469 whole entry): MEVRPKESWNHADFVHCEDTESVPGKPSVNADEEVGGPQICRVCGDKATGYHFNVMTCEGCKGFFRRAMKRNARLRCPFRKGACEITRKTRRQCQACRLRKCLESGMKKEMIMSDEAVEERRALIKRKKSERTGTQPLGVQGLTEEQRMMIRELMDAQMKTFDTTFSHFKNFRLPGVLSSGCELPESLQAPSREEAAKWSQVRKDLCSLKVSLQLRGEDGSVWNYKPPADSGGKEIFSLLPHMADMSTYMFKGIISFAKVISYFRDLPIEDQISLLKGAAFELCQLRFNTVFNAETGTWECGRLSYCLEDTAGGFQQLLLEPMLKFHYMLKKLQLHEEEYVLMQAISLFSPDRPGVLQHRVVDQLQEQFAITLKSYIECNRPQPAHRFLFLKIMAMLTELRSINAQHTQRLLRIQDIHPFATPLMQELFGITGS

[6] = Clearance in CD-1 mouse at 1 mg/kg, iv; conditions: in vivo
[7] = Half-life in CD-1 mouse at 1 mg/kg, iv; assay type: ADME, organism-based; conditions: in vivo
[8] = Oral bioavailability in CD-1 mouse at 5 mg/kg administered as 1% Tween 80, 2% HPMC, 97% water/methane sulfonic acid, pH 2.0 formulation; assay type: ADME, organism-based; conditions: in vivo
[9] = Protein binding in mouse plasma assessed as unbound fraction by ultracentrifugation
[10] = Unbound clearance in CD-1 mouse at 1 mg/kg, iv; assay type: ADME, organism-based; conditions: in vivo
PRMT5/MEP50 complex = PRMT5/MEP50 complex (Homo sapiens, UniProt O14744)
PRMT5/MEP50 complex, sequence (O14744 whole entry): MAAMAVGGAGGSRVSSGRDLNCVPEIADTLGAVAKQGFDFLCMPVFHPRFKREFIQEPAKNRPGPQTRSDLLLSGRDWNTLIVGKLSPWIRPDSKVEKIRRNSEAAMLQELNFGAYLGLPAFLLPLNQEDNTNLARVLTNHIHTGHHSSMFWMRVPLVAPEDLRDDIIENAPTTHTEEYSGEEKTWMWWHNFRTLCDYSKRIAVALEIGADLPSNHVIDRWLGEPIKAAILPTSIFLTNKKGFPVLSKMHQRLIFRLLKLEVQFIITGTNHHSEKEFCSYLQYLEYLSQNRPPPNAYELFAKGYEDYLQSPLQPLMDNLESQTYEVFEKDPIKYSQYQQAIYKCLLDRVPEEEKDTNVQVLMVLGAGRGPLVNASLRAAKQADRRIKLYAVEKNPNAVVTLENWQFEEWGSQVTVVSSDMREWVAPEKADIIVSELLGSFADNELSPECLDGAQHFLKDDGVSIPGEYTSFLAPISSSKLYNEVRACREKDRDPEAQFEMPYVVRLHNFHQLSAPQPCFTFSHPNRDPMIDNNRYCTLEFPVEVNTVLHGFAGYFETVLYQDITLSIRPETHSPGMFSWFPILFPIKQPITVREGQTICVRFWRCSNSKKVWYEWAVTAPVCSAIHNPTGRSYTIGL
PRMT5/MEP50 complex, sequence (Q9BQA1 whole entry, further chain): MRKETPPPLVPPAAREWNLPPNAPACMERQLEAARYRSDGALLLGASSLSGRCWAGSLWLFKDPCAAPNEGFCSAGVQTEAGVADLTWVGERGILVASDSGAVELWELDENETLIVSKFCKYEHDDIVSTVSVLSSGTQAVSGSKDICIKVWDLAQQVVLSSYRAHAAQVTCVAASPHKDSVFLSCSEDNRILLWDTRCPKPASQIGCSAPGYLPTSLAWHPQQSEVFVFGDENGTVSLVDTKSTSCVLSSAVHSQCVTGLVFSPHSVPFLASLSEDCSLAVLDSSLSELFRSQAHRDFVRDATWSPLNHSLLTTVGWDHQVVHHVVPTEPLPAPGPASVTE
Description: Inhibition of PRMT5/MEP50 (unknown origin) preincubated with compound for 24 hrs in presence of SAM and MTA followed by Histone H4 (1-21)-Lys(Biotin) peptide addition and measured after 2 hrs by MTase-Glo reagent based assay

in vivo [11] = conditions: CD-1, mouse, iv, 1 mg/kg
CYP3A4 = CYP3A4 (Homo sapiens, UniProt P08684); assay: in vitro; conditions: human liver microsomes, probe midazolam
CYP3A4, sequence (P08684 whole entry): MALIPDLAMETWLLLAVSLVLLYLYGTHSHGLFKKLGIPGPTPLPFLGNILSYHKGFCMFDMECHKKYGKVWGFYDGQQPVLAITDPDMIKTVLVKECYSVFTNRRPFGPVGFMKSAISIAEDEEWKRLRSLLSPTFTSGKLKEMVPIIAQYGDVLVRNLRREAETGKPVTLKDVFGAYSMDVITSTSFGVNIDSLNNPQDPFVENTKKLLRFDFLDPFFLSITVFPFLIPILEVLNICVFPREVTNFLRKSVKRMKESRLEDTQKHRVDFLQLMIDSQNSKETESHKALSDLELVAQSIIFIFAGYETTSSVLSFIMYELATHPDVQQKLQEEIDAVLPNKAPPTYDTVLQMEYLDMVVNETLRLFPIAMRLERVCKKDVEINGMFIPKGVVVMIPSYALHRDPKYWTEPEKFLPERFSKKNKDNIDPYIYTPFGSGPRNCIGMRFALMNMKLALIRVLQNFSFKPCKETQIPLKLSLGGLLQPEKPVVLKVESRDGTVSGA

[12] = AUC (0 to t) in CD-1 mouse at 5 mg/kg, po administered as 1% Tween 80, 2% HPMC, 97% water/methane sulfonic acid, pH 2.0 formulation; assay type: ADME, organism-based; conditions: in vivo
[13] = Drug metabolism in human hepatocytes assessed as 3-methylquinoline ring system oxidation mediated metabolite formation; assay type: ADME, cell-based, Hepatocyte
[14] = Drug metabolism in mouse hepatocytes assessed as 3-methylquinoline ring system oxidation mediated metabolite formation; assay type: ADME, cell-based, Hepatocyte
BXPC-3 = assay: Antiproliferative activity against human BXPC-3 cells assessed as effect on cell viability; assay type: functional, cell-based
U-87 MG = assay: Antiproliferative activity against human U-87 MG cells assessed as effect on cell viability; assay type: functional, cell-based, U-87MG ATCC
DOHH-2 = assay: Antiproliferative activity against human DOHH-2 cells assessed as effect on cell viability; assay type: functional, cell-based
[15] = Metabolic stability in rat liver microsomes assessed as intrinsic clearance; assay type: ADME, Microsome; conditions: time 40 min, read-out: CLH
[16] = Metabolic stability in dog liver microsomes assessed as intrinsic clearance; assay type: ADME, Canis lupus familiaris, Microsome; conditions: read-out: CLH
[17] = Metabolic stability in human hepatocytes assessed as intrinsic clearance measured per 10^6 cells; assay type: ADME, cell-based, Hepatocyte; conditions: read-out: CLH
[18] = Metabolic stability in rat hepatocytes assessed as intrinsic clearance measured per 10^6 cells; assay type: ADME, cell-based, Hepatocyte; conditions: read-out: CLH
[19] = Metabolic stability in mouse hepatocytes assessed as intrinsic clearance measured per 10^6 cells; assay type: ADME, cell-based, Hepatocyte; conditions: read-out: CLH
[20] = Metabolic stability in dog hepatocytes assessed as intrinsic clearance measured per 10^6 cells; assay type: ADME, cell-based, Canis lupus familiaris, Hepatocyte; conditions: read-out: CLH
[21] = Protein binding in human plasma assessed as unbound fraction by ultracentrifugation
[22] = Protein binding in dog plasma assessed as unbound fraction by ultracentrifugation
[23] = Clearance in Sprague-Dawley rat at 0.5 mg/kg, iv; conditions: in vivo
[24] = Unbound clearance in Sprague-Dawley rat at 0.5 mg/kg, iv; assay type: ADME, organism-based; conditions: in vivo
[25] = Volume of distribution at steady state in Sprague-Dawley rat at 0.5 mg/kg, iv; conditions: in vivo
[26] = Half-life in Sprague-Dawley rat at 0.5 mg/kg, iv; assay type: ADME, organism-based; conditions: in vivo
[27] = Clearance in Beagle dog at 0.5 mg/kg, iv; conditions: in vivo
[28] = Unbound clearance in Beagle dog at 0.5 mg/kg, iv; assay type: ADME, organism-based, Canis lupus familiaris; conditions: in vivo
[29] = Half-life in Beagle dog at 0.5 mg/kg, iv; assay type: ADME, organism-based, Canis lupus familiaris; conditions: in vivo
[30] = Oral bioavailability in Beagle dog at 2 mg/kg administered as 1% Tween 80, 2% HPMC, 97% water/methanesulfonic acid, pH 2.0 formulation; assay type: ADME, organism-based, Canis lupus familiaris; conditions: in vivo
in vivo [31] = conditions: beagle, dog, iv, 0.5 mg/kg

CCN(Cc1ccc(C(F)(F)F)cn1)C(=O)c1ccc2nc(N)c3c(c2c1)COC3
IC50 (HCT-116 [1]): 0.1 µM | IC50 (HCT-116 [2]): 3.21 µM | efflux ratio (human MDR1 (P-gp)): 10 | microsomal CLint at 0.5 µM [3]: 30 µL/min/mg | microsomal CLint at 0.5 µM [4]: 45 µL/min/mg | Activity [5]: < 20% | clearance [6]: 11.7 mL/min/kg | half-life [7]: 2 h | bioavailability [8]: 95% | fraction unbound ([9]; mouse plasma): 0.12 | CL free [10]: 96.7 mL/min/kg | Ki (PRMT5/MEP50 complex): < 0.0001 µM | Vd (in vivo [11]): 1.5 L/kg | inhibition at 30 min, 10 µM (CYP3A4): < 20%

Nc1nc2ccc(C(=O)N3CCOC[C@@H]3c3ccc(C(F)(F)F)cc3)cc2c2c1COC2
IC50 (HCT-116 [1]): 0.233 µM | IC50 (HCT-116 [2]): 4.81 µM | efflux ratio (human MDR1 (P-gp)): 13 | microsomal CLint at 0.5 µM [3]: 50 µL/min/mg | microsomal CLint at 0.5 µM [4]: 78 µL/min/mg | Activity [5]: < 20% | clearance [6]: 6.67 mL/min/kg | half-life [7]: 2.7 h | bioavailability [8]: 61% | fraction unbound ([9]; mouse plasma): 0.05 | CL free [10]: 130 mL/min/kg | Ki (PRMT5/MEP50 complex): < 0.0001 µM | Vd (in vivo [11]): 1.6 L/kg | inhibition at 30 min, 10 µM (CYP3A4): < 20%

Nc1nc2ccc(C(=O)N3CCOC[C@@H]3c3ccc(C(F)(F)F)nc3)cc2c2c1COC2
IC50 (HCT-116 [1]): 0.533 µM | IC50 (HCT-116 [2]): 8.53 µM | efflux ratio (human MDR1 (P-gp)): 36 | microsomal CLint at 0.5 µM [3]: 14 µL/min/mg | microsomal CLint at 0.5 µM [4]: 17 µL/min/mg | Activity [5]: < 20% | clearance [6]: 6.67 mL/min/kg | half-life [7]: 2.5 h | bioavailability [8]: 46% | fraction unbound ([9]; mouse plasma): 0.27 | CL free [10]: 25 mL/min/kg | Ki (PRMT5/MEP50 complex): 0.0002 µM | Vd (in vivo [11]): 1 L/kg | inhibition at 30 min, 10 µM (CYP3A4): < 20%

Cc1cc2cc(C(=O)N(Cc3ccc(C(F)(F)F)cn3)[C@H](C)c3ncccn3)ccc2nc1N
IC50 (HCT-116 [1]): 0.04 µM | IC50 (HCT-116 [2]): 0.854 µM | microsomal CLint at 0.5 µM [3]: 19 µL/min/mg | microsomal CLint at 0.5 µM [4]: 90 µL/min/mg | AUC(0-t) [12]: 1.01 µM·h | Drug metabolism [13]: metabolite_detected | Drug metabolism [14]: metabolite_detected | fraction unbound ([9]; plasma): 0.12 | CL free [10]: 317 mL/min/kg | IC50 (BXPC-3): 0.073 µM | IC50 (U-87 MG): 0.065 µM | IC50 (DOHH-2): 0.017 µM | microsomal CLint at 0.5 µM [15]: 25 µL/min/mg | microsomal CLint [16]: 25 µL/min/mg | hepatocyte CLint [17]: 9 µL/min/1e6 cells | hepatocyte CLint [18]: 11 µL/min/1e6 cells | hepatocyte CLint [19]: 18 µL/min/1e6 cells | hepatocyte CLint [20]: 12 µL/min/1e6 cells | fraction unbound [21]: 0.1 | fraction unbound [22]: 0.2 | clearance [23]: 26.7 mL/min/kg | CL free [24]: 167 mL/min/kg | Vd [25]: 1.3 L/kg | half-life [26]: 2.1 h | clearance [27]: 25 mL/min/kg | CL free [28]: 123 mL/min/kg | half-life [29]: 1.2 h | bioavailability [30]: 45% | Vd (in vivo [31]): 1.9 L/kg

C[C@@H]1COC[C@H](c2ccc(C(F)(F)F)cc2)N1C(=O)c1cc2c3c(c(N)nc2cn1)COC3
IC50 (HCT-116 [1]): 0.007 µM | IC50 (HCT-116 [2]): 0.264 µM | efflux ratio (human MDR1 (P-gp)): 5 | microsomal CLint at 0.5 µM [3]: 43 µL/min/mg | microsomal CLint at 0.5 µM [4]: 178 µL/min/mg | Activity [5]: < 20% | clearance [6]: 18.3 mL/min/kg | half-life [7]: 2.6 h | bioavailability [8]: 51% | fraction unbound ([9]; mouse plasma): 0.08 | CL free [10]: 233 mL/min/kg | Ki (PRMT5/MEP50 complex): < 0.0001 µM | Vd (in vivo [11]): 3 L/kg | inhibition at 30 min, 10 µM (CYP3A4): < 20%

C[C@H](c1ncccn1)N(Cc1ccc(C(F)(F)F)cn1)C(=O)c1ccc2nc(N)c3c(c2c1)COC3
IC50 (HCT-116 [1]): 0.014 µM | IC50 (HCT-116 [2]): 0.078 µM | efflux ratio (human MDR1 (P-gp)): 63 | microsomal CLint at 0.5 µM [3]: 129 µL/min/mg | microsomal CLint at 0.5 µM [4]: 278 µL/min/mg | Activity [5]: 13% | clearance [6]: 38.3 mL/min/kg | half-life [7]: 0.9 h | bioavailability [8]: 8% | fraction unbound ([9]; mouse plasma): 0.23 | CL free [10]: 167 mL/min/kg | Ki (PRMT5/MEP50 complex): < 0.0001 µM | Vd (in vivo [11]): 1.4 L/kg | inhibition at 30 min, 10 µM (CYP3A4): 4%

Nc1nc2ccc(C(=O)N3CCOC[C@@H]3c3ccc(C(F)(F)F)cn3)cc2c2c1COC2
IC50 (HCT-116 [1]): 0.395 µM | IC50 (HCT-116 [2]): 9.43 µM | efflux ratio (human MDR1 (P-gp)): 33 | microsomal CLint at 0.5 µM [3]: 14 µL/min/mg | microsomal CLint at 0.5 µM [4]: 16 µL/min/mg | Activity [5]: < 20% | clearance [6]: 6.67 mL/min/kg | half-life [7]: 2.1 h | bioavailability [8]: 78% | fraction unbound ([9]; mouse plasma): 0.18 | CL free [10]: 36.7 mL/min/kg | Ki (PRMT5/MEP50 complex): < 0.0001 µM | Vd (in vivo [11]): 1.2 L/kg | inhibition at 30 min, 10 µM (CYP3A4): < 20%

CN(Cc1ccc(C(F)(F)F)cn1)C(=O)c1ccc2nc(N)c3c(c2c1)COC3
IC50 (HCT-116 [1]): 0.426 µM | IC50 (HCT-116 [2]): 8.79 µM | efflux ratio (human MDR1 (P-gp)): 23 | microsomal CLint at 0.5 µM [3]: 14 µL/min/mg | microsomal CLint at 0.5 µM [4]: 19 µL/min/mg | Activity [5]: < 20% | clearance [6]: 8.33 mL/min/kg | half-life [7]: 2.2 h | bioavailability [8]: 64% | fraction unbound ([9]; mouse plasma): 0.21 | CL free [10]: 40 mL/min/kg | Ki (PRMT5/MEP50 complex): 0.0001 µM | Vd (in vivo [11]): 0.9 L/kg | inhibition at 30 min, 10 µM (CYP3A4): < 20%
